Here are results for two compounds from US12128018B2, “Combination of a selective histone deacetylase 3 (HDAC3) inhibitor and an immunotherapy agent for the treatment of cancer” (KDAc Therapeutics, Inc., priority 2018, dated 2024).

For series [1], the system named is MHC class II (IA-IE) in RENCA cells. In words: in vitro induction of MHC class II (IA-IE) in RENCA cells (FACS). The class given is cell-based, murine. The procedure: (§1) Cell Culture and Compound Treatment for MHC II Induction
(§2) Human and murine tumor cell lines were obtained from the Shanghai Institutes for Biological Sciences (SIBS) or American Type Culture Collection (ATCC) and maintained in a humidified 5% CO2 incubator at 37° C. All of the human cell lines were derived from human B cell lymphomas: OCI-Ly19, OCI-Ly7, OCI-Ly18, RL, SU-DHL6, and MD901. The murine tumor cell lines were of varied origin: CT-26 (colon carcinoma), RENCA (renal cell carcinoma), P388D1 (lymphoblast of monocytes and macrophages), MPC-11 (plasmacytoma, myeloma), L5178 (thymic lymphoma), and J588 (plasmacytoma, myeloma).
(§3) On Day 0, T25 flasks were seeded at the following cell densities:
(§4) On Day 1, cells were treated with I-1 compound diluted in DMSO/PBS (final concentration of DMSO in the media was 0.19%). The cells were treated with I-1 compound for 72 hours. The adherent cells were dissociated with 1 mL/T25 flask of Cell Dissociation buffer (GIBCO) at 37° C. Four mL of culture media was added to each flask, samples were aliquoted FACS analysis. […]
(§5) Cells were counted to determine cell number and viability with Vi-cell (Beckman). […]
(§6) Cells were incubated for 1 hour at 4° C., protected from light. […] Samples were analyzed immediately using FACS machine. The data were analyzed with BD Accuri C6 software and FlowJo_V10.

Another series concerns the target HDAC3 (Homo sapiens (Human), UniProt O15379). Nature of the series: non-trypsin coupled in-vitro HDAC enzymatic endpoint assay (Caliper LabChip EZ-Reader). It is filed as biochemical. Particulars: 3 hrs preincubation, Substrate A 2 μM.
A further series deals with HDAC1 (Homo sapiens (Human), UniProt Q13547). The description is as above. The class given is biochemical. The note with it: 3 hrs preincubation, Substrate A 2 μM.
HDAC1, sequence (Q13547 whole entry, species assumed): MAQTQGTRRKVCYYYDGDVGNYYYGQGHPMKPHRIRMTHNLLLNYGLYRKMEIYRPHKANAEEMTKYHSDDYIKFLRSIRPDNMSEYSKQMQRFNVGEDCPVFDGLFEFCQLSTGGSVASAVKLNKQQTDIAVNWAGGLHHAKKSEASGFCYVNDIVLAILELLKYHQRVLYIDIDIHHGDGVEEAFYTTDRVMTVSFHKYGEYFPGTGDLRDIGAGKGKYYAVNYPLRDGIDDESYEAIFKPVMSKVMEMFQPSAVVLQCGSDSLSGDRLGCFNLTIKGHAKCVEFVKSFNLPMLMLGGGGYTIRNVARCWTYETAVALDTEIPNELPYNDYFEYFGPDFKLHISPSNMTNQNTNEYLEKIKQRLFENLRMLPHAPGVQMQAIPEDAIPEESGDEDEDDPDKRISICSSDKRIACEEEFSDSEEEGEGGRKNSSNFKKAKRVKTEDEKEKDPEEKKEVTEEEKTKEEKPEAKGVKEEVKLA
Series [2] deals with Twenty-six syngeneic cells lines. In words: viability of syngeneic cell lines. It is filed as cell-based. Particulars: 10 μM.
Series [3] relates to P388D1 cells and RENCA cells. In words: cytotoxicity, percent of viable cells. The class given is cell-based, murine. The note with it: various concentrations (FIG. 4).
Series [4] can be described thus: tolerability and exposure relative to NOAEL.
Series [5] deals with MHC Class II expression across multiple cell lines. In words: FACS detection of MHC II on human and murine tumor cell lines. It is filed as cell-based. Particulars: 72 hours treatment (FIG. 1). As to the method: as §1, §2, §3, §4, §5, §6
The next series deals with HDAC2 (Homo sapiens (Human), UniProt Q92769). Nature of the series: non-trypsin coupled in-vitro HDAC enzymatic endpoint assay (Caliper LabChip EZ-Reader). The note with it: 3 hrs preincubation, Substrate A 2 μM. It is filed as biochemical.
HDAC2, sequence (Q92769 whole entry, species assumed): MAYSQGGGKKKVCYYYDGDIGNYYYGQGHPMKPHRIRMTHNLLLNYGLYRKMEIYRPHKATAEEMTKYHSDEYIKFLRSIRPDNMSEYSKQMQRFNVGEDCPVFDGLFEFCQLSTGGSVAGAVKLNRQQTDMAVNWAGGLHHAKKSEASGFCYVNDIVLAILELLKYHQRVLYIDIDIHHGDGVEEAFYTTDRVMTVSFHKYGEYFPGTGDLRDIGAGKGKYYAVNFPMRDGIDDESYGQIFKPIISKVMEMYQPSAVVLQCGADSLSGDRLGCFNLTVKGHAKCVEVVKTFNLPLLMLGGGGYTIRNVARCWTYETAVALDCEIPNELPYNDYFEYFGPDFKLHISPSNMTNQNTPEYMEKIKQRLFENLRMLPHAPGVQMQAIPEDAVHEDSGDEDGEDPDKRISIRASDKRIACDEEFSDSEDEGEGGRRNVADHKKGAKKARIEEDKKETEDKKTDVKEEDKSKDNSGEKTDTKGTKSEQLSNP
The nature of another series: plasma exposure (PK). The class given is in vivo. The note with it: FIG. 13. As to the method: 1) For pharmacokinetics (PK): 2 hrs after the first treatment, satellite time point (Day 11) and after the final time point (Day 14) 100 μl blood was collected from the I-1 treatment groups (3 mice/group), then centrifuged to get about 50 μl plasma for PK analysis.
Series [6] deals with MHC class II (IA-IE) in P388D1 cells. Nature of the series: in vitro induction of MHC class II (IA-IE) in P388D1 cells (FACS). The class given is cell-based, murine. The procedure: as §1, §2, §3
On Day 1, cells were treated with I-1 compound diluted in DMSO/PBS (final concentration of DMSO in the media was 0.19%). The cells were treated with I-1 compound for 72 hours. The adherent cells were dissociated with 1 mL/T25 flask of Cell Dissociation buffer (GIBCO) at 37° C. Four mL of culture media was added to each flask, samples were aliquoted FACS analysis. For suspension cells, samples were aliquoted into 50 mL conical tubes for FACS analysis.
FACS Detection of MHC II on Human and Murine Cells (IA/IE on Murine Cells)
Cells were counted to determine cell number and viability with Vi-cell (Beckman). After washing once with 10 mL cold FACS staining buffer (PBS+0.2% BSA), liquid was aspirated and the cells were resuspended in enough cold FACS staining buffer to reach a final cell density of ˜1×10^7 viable cells/mL. 50 μL/well (˜500 k/well) of cells were added to a 96-well u-bottomed plate and the cells were stained as follows, according to manufacturer's instructions: • Sample 1: Unstained • Sample 2: stained with anti MHC II antibody (PE anti-human HLA-DR, Clone: G46-6, Becton Dickinson; PE anti-mouse I-A/I-E, Clone: M5/114.15.2, Becton Dickinson) • Sample 3: stained with isotype control
as §6

HDAC3, sequence (O15379 whole entry, species assumed): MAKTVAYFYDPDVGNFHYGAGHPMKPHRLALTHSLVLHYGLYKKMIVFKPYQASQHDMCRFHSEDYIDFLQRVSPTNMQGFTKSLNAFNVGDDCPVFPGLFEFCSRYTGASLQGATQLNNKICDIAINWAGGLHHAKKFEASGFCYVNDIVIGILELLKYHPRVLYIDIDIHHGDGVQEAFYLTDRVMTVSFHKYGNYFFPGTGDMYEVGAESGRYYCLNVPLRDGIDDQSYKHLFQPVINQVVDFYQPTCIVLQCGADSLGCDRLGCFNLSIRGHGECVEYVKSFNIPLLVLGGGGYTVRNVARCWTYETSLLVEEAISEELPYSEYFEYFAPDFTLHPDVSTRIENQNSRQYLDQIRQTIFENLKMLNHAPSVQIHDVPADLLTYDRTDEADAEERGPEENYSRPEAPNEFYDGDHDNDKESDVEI
HDAC3, sequence (Q9Y618 395-489 partner, species assumed): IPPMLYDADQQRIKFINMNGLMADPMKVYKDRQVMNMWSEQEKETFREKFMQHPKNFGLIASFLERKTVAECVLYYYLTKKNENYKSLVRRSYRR
Experimental for HDAC1: (§7) In some experiments, the following non-trypsin coupled in-vitro HDAC enzymatic endpoint assay was used to assay the compounds described herein. Below is a standardized protocol for running HDAC selectivity panel on Caliper LabChip EZ-Reader Instrument.
(§8) Substrate A was prepared as 2 mM in DMSO. Its final concentration in the assay for HDACs 1,2,3,6 is 2 μM.
(§9) LBH was used as quench inhibitor to stop the reaction at the end point.
(§10) The protocol was carried out as follows: • 1. Caliper LabChip and 1 μM Marker (peptide substrate in separation buffer) were prepared for instrument run. • 2. Warm up Caliper HAB buffer to room temperature • 3. […] Add 10 μl 3× solution acetylated substrate to initiate the reaction for 50 minutes. • 5. […] Mix plate • 7. Read plate on EZ Reader instrument. Separate substrate and product peaks by capillary electrophoresis and read fluorescence from both substrate and product. • 8. Run parameters were as follows:
Experimental for HDAC2: as §7, §8, §9, §10
Experimental for HDAC3: as §7, §8, §9, §10

On to `CC(=O)Nc1ccc(C(=O)Nc2ccc(F)cc2N)cc1` [Compound I-1], for which the “fold more cells positive for MHC class II (IA-IE)” value in [1] (1 μM I-1) was “about 2 ×”; in [1] (3 μM I-1), “about 6 ×”; in series [6] (120 nM I-1), “about 4 ×”; in series [6] (3 μM I-1), “about 13 ×”. For the same compound, the IC50 at HDAC3 came out at 61 nM; on HDAC1, 2190 nM; against HDAC2 it was 1510 nM. The impact on viability result in series [2] was “minimal impact on viability”. In addition, the “cytotoxicity (percent of viable cells)” value in series [3] is given as “generally not cytotoxic”. In addition, in series [4] (25 and 50 mg/kg, orally, BID), the tolerability result is given as “well tolerated”. In addition, the “tolerated exposures relative to tolerated dose of a clinical HDAC 1,2,3 inhibitor” value in series [4] (FIG. 13) is recorded as “greater than 4 ×”. The “levels showing efficacy relative to NOAEL (no adverse effect level)” value in series [4] (rat NOAEL, FIG. 13) is listed as “below rat NOAEL”. For the same compound, the “increase in MHC Class II expression” value in series [5] is reported as 20-100%. In addition, the plasma exposure entry in the series “plasma exposure (PK)” was “above K, and below NOAEL”.
With `Nc1cc(F)ccc1NC(=O)/C=C/c1cnn(C/C=C/c2ccccc2)c1` [RGFP966, reference compound], in [6] (various concentrations (FIGS. 14 and 15)), the “MHC class II protein levels (geometric mean MFI)” value is given as “capable of increasing MHC class II protein levels”.

Usually IC50 stands for the concentration needed to halve the response being measured. Read a low IC50 as greater potency in that assay.
